Here are results for 7 compounds from paper PMC3962780 (ChemMedChem, 2013).

The target in test [1] is human recombinant HDAC1 (Homo sapiens, UniProt Q13547). Nature of the test: HDAC activity assay, recombinant HDAC1. It is filed as biochemical.
The target of test [2] is human recombinant HDAC2 (Homo sapiens, UniProt Q92769). The experiment in a line: HDAC activity assay, recombinant HDAC2. It counts as biochemical.
Test [3] concerns the target human recombinant HDAC3 (Homo sapiens, UniProt O15379). Nature of the test: HDAC activity assay, recombinant HDAC3. It is filed as biochemical.
Test [4] concerns the target T1, recombinant HDAC8 (purified from E. coli) (Homo sapiens, UniProt Q9BY41).
T1 sequence (Q9BY41 1-377): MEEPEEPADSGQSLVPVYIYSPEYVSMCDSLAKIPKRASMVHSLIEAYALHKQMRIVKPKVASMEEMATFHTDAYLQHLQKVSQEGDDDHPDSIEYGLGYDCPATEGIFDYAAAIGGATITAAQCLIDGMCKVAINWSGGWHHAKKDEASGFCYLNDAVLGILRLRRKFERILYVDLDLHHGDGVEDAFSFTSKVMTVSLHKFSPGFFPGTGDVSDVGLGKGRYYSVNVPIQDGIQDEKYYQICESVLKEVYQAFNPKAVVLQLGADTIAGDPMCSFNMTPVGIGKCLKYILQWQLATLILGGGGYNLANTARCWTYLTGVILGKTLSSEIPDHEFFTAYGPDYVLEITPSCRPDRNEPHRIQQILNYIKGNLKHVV
Nature of the test: HDAC activity assay, recombinant HDAC8. It counts as biochemical.

The target of test [5] is T2, ERα (Homo sapiens, UniProt P03372).
T2 sequence (P03372 1-595): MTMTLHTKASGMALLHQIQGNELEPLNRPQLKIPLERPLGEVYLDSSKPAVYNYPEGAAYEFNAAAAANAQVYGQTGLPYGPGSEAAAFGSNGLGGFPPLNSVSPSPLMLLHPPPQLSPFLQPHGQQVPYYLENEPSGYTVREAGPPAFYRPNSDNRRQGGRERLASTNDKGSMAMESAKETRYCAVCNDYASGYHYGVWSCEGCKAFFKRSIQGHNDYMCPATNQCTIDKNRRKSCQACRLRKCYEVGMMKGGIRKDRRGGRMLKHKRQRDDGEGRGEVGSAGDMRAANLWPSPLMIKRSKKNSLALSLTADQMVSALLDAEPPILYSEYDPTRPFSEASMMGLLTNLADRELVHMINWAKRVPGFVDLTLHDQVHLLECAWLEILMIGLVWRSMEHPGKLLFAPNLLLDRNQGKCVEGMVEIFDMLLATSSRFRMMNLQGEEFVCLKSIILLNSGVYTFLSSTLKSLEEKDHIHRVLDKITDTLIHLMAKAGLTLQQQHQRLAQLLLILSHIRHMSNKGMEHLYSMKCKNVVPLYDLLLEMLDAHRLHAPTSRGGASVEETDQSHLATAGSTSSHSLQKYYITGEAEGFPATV
The experiment in a line: Inhibition of 17β estradiol induced ERE-luciferase activity in MCF-7 cells. It counts as cell-based. The note with it: cotreatment with E2.

Test [6] deals with MCF-7 ER(+) cells. The experiment in a line: Cytotoxicity assay. It is filed as cell-based, human.
Test [7] deals with MCF-7 cells. The conditions noted are these: MCF-7, 48 h, 4-OHT 10 μM; ref Bicaku et al. [9b]; cited from earlier work.
The target of test [8] is T2, ERα. The experiment in a line: Ishikawa alkaline phosphatase assay. It counts as cell-based.
Test [9] deals with MDA-MB-231 ER(−) cells. The experiment in a line: Cytotoxicity assay. It is filed as cell-based, human. The conditions noted are these: hybrid molecules 10 μM; 24, 48 and 72 h.

human recombinant HDAC1, sequence (Q13547 whole entry): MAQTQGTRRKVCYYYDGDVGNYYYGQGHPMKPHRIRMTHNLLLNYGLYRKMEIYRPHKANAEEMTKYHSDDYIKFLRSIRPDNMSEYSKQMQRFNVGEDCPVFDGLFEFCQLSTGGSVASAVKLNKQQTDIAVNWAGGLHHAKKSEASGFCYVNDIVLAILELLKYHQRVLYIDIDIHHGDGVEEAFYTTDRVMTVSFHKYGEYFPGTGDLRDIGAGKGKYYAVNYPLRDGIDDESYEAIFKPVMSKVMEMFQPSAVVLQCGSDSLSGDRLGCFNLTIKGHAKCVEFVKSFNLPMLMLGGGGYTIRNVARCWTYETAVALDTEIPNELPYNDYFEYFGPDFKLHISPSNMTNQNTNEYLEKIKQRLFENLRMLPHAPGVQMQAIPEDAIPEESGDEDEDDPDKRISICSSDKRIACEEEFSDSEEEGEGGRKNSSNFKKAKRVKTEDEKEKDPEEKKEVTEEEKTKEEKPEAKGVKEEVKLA
human recombinant HDAC3, sequence (O15379 whole entry): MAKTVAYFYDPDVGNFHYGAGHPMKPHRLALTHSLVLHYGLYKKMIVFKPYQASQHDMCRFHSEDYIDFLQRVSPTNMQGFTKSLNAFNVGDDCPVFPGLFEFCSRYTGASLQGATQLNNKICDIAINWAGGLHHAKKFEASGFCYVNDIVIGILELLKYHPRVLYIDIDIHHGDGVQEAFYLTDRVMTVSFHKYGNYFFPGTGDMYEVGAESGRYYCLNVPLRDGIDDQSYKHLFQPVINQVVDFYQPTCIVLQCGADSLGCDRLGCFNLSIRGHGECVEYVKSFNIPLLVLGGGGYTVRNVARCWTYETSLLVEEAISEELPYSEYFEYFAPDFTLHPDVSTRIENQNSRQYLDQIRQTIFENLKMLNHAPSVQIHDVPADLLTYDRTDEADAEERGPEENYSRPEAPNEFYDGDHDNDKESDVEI
human recombinant HDAC3, sequence (Q9Y618 395-489 partner limits assumed): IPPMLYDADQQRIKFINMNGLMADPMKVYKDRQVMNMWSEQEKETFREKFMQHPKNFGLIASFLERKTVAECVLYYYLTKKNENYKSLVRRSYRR
human recombinant HDAC2, sequence (Q92769 whole entry): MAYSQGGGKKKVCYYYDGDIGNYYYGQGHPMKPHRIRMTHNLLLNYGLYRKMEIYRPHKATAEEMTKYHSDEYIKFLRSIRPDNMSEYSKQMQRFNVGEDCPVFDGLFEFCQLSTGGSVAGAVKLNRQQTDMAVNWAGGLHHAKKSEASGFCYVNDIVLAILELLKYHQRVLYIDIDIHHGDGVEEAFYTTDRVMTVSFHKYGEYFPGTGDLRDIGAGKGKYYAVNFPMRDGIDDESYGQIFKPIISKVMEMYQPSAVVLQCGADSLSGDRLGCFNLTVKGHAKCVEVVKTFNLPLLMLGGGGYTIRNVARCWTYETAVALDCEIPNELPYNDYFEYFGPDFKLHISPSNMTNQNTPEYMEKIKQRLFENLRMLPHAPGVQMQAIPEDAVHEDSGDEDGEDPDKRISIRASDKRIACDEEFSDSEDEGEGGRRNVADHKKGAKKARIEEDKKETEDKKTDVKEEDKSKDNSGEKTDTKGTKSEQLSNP

As usually defined, the IC50 is the midpoint of a concentration-inhibition curve. As to `O=C(CCCCCNC(=O)c1c(-c2ccc(O)cc2)sc2cc(O)ccc12)NO` [8a, 6-hydroxy-N-(6-(hydroxyamino)-6-oxohexyl)-2-(4-hydroxyphenyl)benzo[b]thiophene-3-carboxamide], the IC50 in test [1] amounted to 596 ± 51 nM; in test [2], 2440 ± 20 nM; in test [3], 214 ± 6 nM; in test [4], 719 ± 63 nM.
On to `O=C(CCCCCCNC(=O)c1c(-c2ccc(O)cc2)sc2cc(O)ccc12)NO` [8b, 6-hydroxy-N-(7-(hydroxyamino)-7-oxoheptyl)-2-(4-hydroxyphenyl)benzo[b]thiophene-3-carboxamide], for which the “Inhibition of estrogenic response (antiestrogenic activity), ERE-luciferase reporter” value in [5] is reported as “concentration dependent inhibition of estrogenic response”.
Take `Oc1ccc(-c2sc3cc(O)ccc3c2Oc2ccc(OCCN3CCCCC3)cc2)cc1` [DMA, desmethylarzoxifene]: the “Toxicity towards MCF-7 cells” value in [6] (10 μM, 72 h treatment) was “toxic”.
As for `O=C(CCCCn1cc(-c2ccc(C(=O)c3c(-c4ccc(O)cc4)sc4cc(O)ccc34)cc2)nn1)NO` [15a, N-hydroxy-5-(4-(4-(6-hydroxy-2-(4-hydroxyphenyl)benzo[b]thiophene-3-carbonyl)phenyl)-1H-1,2,3-triazol-1-yl)pentanamide], the IC50 in test [1] turned out to be 8390 ± 300 nM; in test [2] it was 19200 ± 650 nM; in test [3] it was 5740 ± 530 nM; in test [4], 23500 ± 1500 nM.
In the case of `CC/C(=C(\c1ccc(O)cc1)c1ccc(OCCN(C)C)cc1)c1ccccc1` [4OHT, 4-hydroxytamoxifen], the “Cell death, combination with SAHA” value in [6] (ER(+) MCF-7 cells, 72 h combination treatment) is on record as “modest but significantly increased cell death”. Further, the “Increase in apoptosis in combination with SAHA over SAHA alone” value in test [7] is “approximately 10%”.
As for `O=C(CCCCCn1cc(-c2ccc(C(=O)c3c(-c4ccc(O)cc4)sc4cc(O)ccc34)cc2)nn1)NO` [15b, N-hydroxy-6-(4-(4-(6-hydroxy-2-(4-hydroxyphenyl)benzo[b]thiophene-3-carbonyl)phenyl)-1H-1,2,3-triazol-1-yl)hexanamide], in test [5], the “Inhibition of estrogenic response (antiestrogenic activity), ERE-luciferase reporter” value is “concentration dependent inhibition of estrogenic response”. In test [8], this compound registered a half-maximal inhibitory concentration (IC50) of 2900 ± 300 nM. For the same compound, the “Cell death in MDA-MB-231 ER(−) cells” value in [9] is “caused significant cell death”.
As to `O=C(Nc1cc(-c2ccccc2)ccc1O)c1c(-c2ccc(O)cc2)sc2cc(O)ccc12` [compound 10, 6-hydroxy-N-[4-hydroxy-(1,1′-biphenyl)-3-yl]-2-(hydroxyphenyl)benzo[b]thiophene-3-carboxamide], in test [1] (pre-incubation 3 h), the “% inhibition of HDAC1” value is given as 21–34%. In test [3] (pre-incubation 3 h), the “% inhibition of HDAC3” value is on record as 0–12%.
